In patent US10611750B2, “Tetrahydroquinoline compositions as bet bromodomain inhibitors” (FORMA Therapeutics, Inc., priority 2013, dated 2020):

Experiments:
[1] = molecular target: T1, BRD4 Bromodomain 2 (BRD4 BD2) (Homo sapiens, UniProt O60885); assay: AlphaScreen binding assay, BRD4 BD2; settings: His-tagged BRD4 BD2 100 nM, biotinylated H4 (1-21) K5/8/12/16 tetra-acetylated peptide 100 nM, compounds listed under IC50 range headings
T1 construct: 333-460 were cloned, expressed, and purified to homogeneity
Method in brief: (§1)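 An AlphaScreen competition format was used with His-BRD4 BD1 or BD2 and biotin-H4 K5/8/12/16-acetyl peptide, each at matched final levels of 50 nM (BD1) or 100 nM (BD2). Incubation in HEPES/NaCl buffer with 0.1% BSA and 0.01% Triton X-100 ran ≥1 h before IC50 determination.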

[2] = tested on: acute myelocytic leukemia (AML) cell line MV4-11; assay: Oncology cell growth assay (3-day proliferation, CellTiter-Glo); assay type: cell-based; settings: Homo sapiens, MV4-11, 72 h, MV4-11 cells, 3000 cells/well, compounds listed under IC50 range headings, read-out: MV411 IC50 (gIC50, inhibition of proliferation)
Method in brief: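 A 3-day proliferation test used MV4-11 cells seeded at 3000 per well with eight compound concentrations (10 μM top, 3-fold dilution) at 37° C in 5% CO2. CellTiter-Glo luminescence defined viable cell signal. A four-parameter logistic curve against DMSO and background wells gave the gIC50.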

[3] = molecular target: T2, BRD4 Bromodomain 1 (BRD4 BD1) (Homo sapiens, UniProt O60885); assay: AlphaScreen binding assay, BRD4 BD1; settings: His-tagged BRD4 BD1 50 nM, biotinylated H4 (1-21) K5/8/12/16 tetra-acetylated peptide 50 nM, compounds listed under IC50 range headings
T2 construct: 44-168 and BRD4 BD2
Method in brief: as §1

Row | Compound | IC50 [1] [nM] | IC50 [2] [nM] | IC50 [3] [nM]
1 | CC(=O)N1c2ccc(-c3cnn(C4CCNCC4)c3)c(OCC(=O)N3CCCC3)c2CC[C@@H]1C [I-431] | 50 to 500 | 500 to 1000 | 100 to 1000
2 | CCCOc1c(-c2cnn(CC(C)(C)O)c2)ccc2c1CC[C@H](C)N2C(=O)OC [I-442] | < 50 | < 500 | 1000 to 10000
3 | CCCOc1c(-c2cnn(CCO)c2)ccc2c1CC[C@H](C)N2C(=O)OC [I-443] | < 50 | < 500 | 1000 to 10000
4 | COC(=O)N1c2ccc(-c3cnn(CCS(C)(=O)=O)c3)c(OC3CCC3)c2CC[C@@H]1C [I-444] | < 50 | < 500 | 100 to 1000
5 | COC(=O)N1c2ccc(-c3cnn(CC(C)(C)O)c3)c(OC3CCC3)c2CC[C@@H]1C [I-445] | < 50 | < 500 | 1000 to 10000
6 | COC(=O)N1c2ccc(-c3cnn(CCO)c3)c(OC3CCC3)c2CC[C@@H]1C [I-446] | 50 to 500 | < 500 | 100 to 1000
7 | COC(=O)N1c2ccc(-c3cnn(C4CCNCC4)c3)c(OC3CCC3)c2CC[C@@H]1C [I-447] | < 50 | < 500 | < 100
8 | COC(=O)N1c2ccc(-c3cnn(CC(C)(C)O)c3)c(OCC3CCOCC3)c2CC[C@@H]1C [I-449] | 50 to 500 | < 500 | 100 to 1000
9 | COC(=O)N1c2ccc(-c3cnn(C4CCNCC4)c3)c(OCC(C)C)c2CC[C@@H]1C [I-458] | < 50 | < 500 | 100 to 1000
10 | COC(=O)N1c2ccc(-c3cnn(CCS(C)(=O)=O)c3)c(OCC3CCCC3)c2CC[C@@H]1C [I-459] | 50 to 500 | > 1000 | 100 to 1000
11 | COC(=O)N1c2ccc(-c3cnn(CCO)c3)c(OCC3CCCC3)c2CC[C@@H]1C [I-461] | < 50 | 500 to 1000 | 100 to 1000
12 | COC(=O)N1c2ccc(-c3cnn(C4CCNCC4)c3)c(OCC3CCCC3)c2CC[C@@H]1C [I-462] | < 50 | 500 to 1000 | 100 to 1000
13 | COC(=O)N1c2ccc(-c3cnn(C4CCNCC4)c3)c(OCC(=O)N3CCCC3)c2CC[C@@H]1C [I-466] | 50 to 500 | > 1000 | 100 to 1000
14 | CC(=O)N1c2ccc(-c3cnn(C4CC4)c3)c(OCc3ccncc3)c2CC[C@@H]1C [I-479] | < 50 | > 1000 | 1000 to 10000
15 | CCCOc1c(-c2ccc(OCCN(C)C)cc2)ccc2c1CC[C@H](C)N2C(C)=O [I-486] | 50 to 500 | < 500 | 1000 to 10000
16 | CC(=O)N1c2ccc(-c3ccc(OCCN(C)C)cc3)c(OCC(=O)N(C)C)c2CC[C@@H]1C [I-487] | ≥ 500 | > 1000 | 1000 to 10000
17 | CC(=O)N1c2ccc(-c3cccc(NS(C)(=O)=O)c3)c(OCC(=O)N(C)C)c2CC[C@@H]1C [I-491] | 50 to 500 | > 1000 | 1000 to 10000
18 | CC(=O)N1c2ccc(-c3ccc4c(c3)CCN4S(C)(=O)=O)c(OCC(=O)N(C)C)c2CC[C@@H]1C [I-501] | 50 to 500 | > 1000 | 1000 to 10000
19 | CCCOc1c(-c2cc3ccccc3o2)ccc2c1CC[C@H](C)N2C(C)=O [I-504] | ≥ 500 | > 1000 | 1000 to 10000
20 | CC(=O)N1c2ccc(-c3cnn(C4CCNCC4)c3)c(Oc3ncc(F)cn3)c2CC[C@@H]1C [I-511] | < 50 | < 500 | 100 to 1000
21 | CC(=O)N1c2ccc(-c3cnn(C4CCNCC4)c3)c(Oc3ccc(C(F)(F)F)cn3)c2CC[C@@H]1C [I-512] | 50 to 500 | < 500 | 100 to 1000
22 | CC(=O)N1c2ccc(-c3cnn(C4CCNCC4)c3)c(Oc3ncccn3)c2CC[C@@H]1C [I-513] | 50 to 500 | < 500 | 1000 to 10000
23 | CC(=O)N1c2ccc(-c3cnn(C4CCNCC4)c3)c(Oc3nccc(C(F)(F)F)n3)c2CC[C@@H]1C [I-514] | 50 to 500 | < 500 | 1000 to 10000
24 | CC(=O)N1c2ccc(-c3cnn(C4CCNCC4)c3)c(Oc3ccnc(C(F)(F)F)n3)c2CC[C@@H]1C [I-515] | 50 to 500 | 500 to 1000 | 1000 to 10000
25 | CC(=O)N1c2ccc(-c3cnn(C4CCNCC4)c3)c(Oc3cc(N4CCOCC4)ncn3)c2CC[C@@H]1C [I-516] | 50 to 500 | 500 to 1000 | 1000 to 10000
26 | CC(=O)N1c2ccc(-c3cnn(C4CCNCC4)c3)c(Oc3cc(C4CC4)ncn3)c2CC[C@@H]1C [I-517] | 50 to 500 | < 500 | 1000 to 10000
27 | CC(=O)N1c2ccc(-c3cnn(C4CCNCC4)c3)c(Oc3ncc(C4CC4)cn3)c2CC[C@@H]1C [I-518] | 50 to 500 | < 500 | 100 to 1000
